Laboratory results reported in patent publication US20250235418A1, “Butyrate Analogues and Methods of Use for HIF Stabilization and Treatment of Bowel Disease” (THE REGENTS OF THE UNIVERSITY OF COLORADO, A BODY CORPORATE, priority 2022, published 2025).

Legend:
[1] = target: T1, PHD2181-402 (Homo sapiens, UniProt Q9GZT9); test: WaterLOGSY 1D NMR binding to PHD2181-402; details: for binding to PHD2181-402 by WaterLOGSY: 10 mM SCFA, 25 μM PHD2181-402
T1 construct: made in house
Description: Protons attached to C4 were selectively inverted and acted as source of magnetization transfer. […] (G) Protons attached to C2 were selectively inverted.
Measurements were repeated 3 times.
This method enables sensitive and robust detection of binding (dissociation constants as weak as μM to low mM) based on the magnetization transfer between water molecules, proteins, and ligands of interest in close proximity via dipolar proton-proton cross-relaxation (nuclear Overhauser effect, NOE). […] Binding and non-binding ligands can be distinguished in a WaterLOGSY spectrum via their opposite signs in relation to water for their corresponding peaks.
This technique allows for mapping of the ligand pharmacophore by monitoring the response of individual protons to an increase of ROEs contribution to the overall cross relaxation rate.

[2] = system: HIF target genes in T84 cells; test: real-time PCR of HIF target genes BNIP3 and CAIX in T84 cells; assay type: cell-based; details: 16h
Procedure: (A) Exposure of T84 cells to Veh, BA or MBA (5 mM, 16 h) induced HIF target gene expression of CAIX and BNIP3. […] (C) Non-targeting control and T84 HIF1b depleted cells were analyzed for HIF1b expression by western blotting, shown with a representative blot. Quantification of HIF1b decrease was performed using ACTB-normalized densitometry. qPCR data was analyzed by One-way ANOVA with Bonferroni for post hoc correction and presented as mean±S.E.M, **p<0.01, ***p<0.001, ****p<0.0001 of three independent experiments.
Following these findings, we then explored if the MBA-induced stabilization of HIF was reflected in the transcriptional regulation of target genes. We utilized real-time PCR to study the influence of MBA mediated HIF stabilization in the induction of established HIF targets, BNIP3 (cell survival) and CAIX (pH regulation).
Furthermore, to confirm MBA-induced HIF transcriptional activity, we quantified the induction of BNIP3 and CAIX by BA or MBA (5 mM, 16h) in lentiviral shRNA-mediated knockdown of HIF1β relative to non-targeting shRNA controls. […] These findings confirm that through MBA exposure, HIF is stabilized and it is transcriptionally active.

[3] = target: T1, PHD2181-402; test: bioluminescent succinate detection assay of recombinant PHD2181-402 activity/inhibition; assay type: biochemical
Description: To pinpoint if butyrate inhibits PHDs directly, we expressed recombinant PHD derived from the human PHD2 sequence. There are three human PHDs: PHD1, PHD2, and PHD3, with PHD2 being the most abundant and expressed in the majority of tissues, the most important regulator of HIF, particularly HIF-1α, and the only PHD that is embryonically lethal when deleted. PHD1 is exclusively localized to the nucleus, whereas PHD2 is mainly cytoplasmic, and PHD3 is both. […] Sequence comparisons and modeling studies indicate that the PHD2 active site is highly conserved among the PHDs.
IC50s depend on exact experimental conditions, making direct comparisons and global applications difficult.

[4] = system: HIF-1α in T84 cells; test: HIF stabilization by butyrate in T84 cells (HIF-1α target mRNA, HIF-1α protein); assay type: cell-based; details: 4 h
Procedure: (C) Quantified densitometry of HIF-1α protein expression in T84 cells treated with 10 mM butyrate with or without 1 mM MCPA for 4 h

[5] = system: c2bbe cells; test: epithelial barrier formation by transepithelial electrical resistance (TEER); assay type: cell-based; details: 5 mM
Procedure: Barrier development in Caco-2 cells treated with Veh, BA or […] (5 mM); n=6. Data analyzed by Two-way ANOVA with Dunnett for post hoc correction and presented as mean±S.E.M, *p<0.05 **p<0.01, ***p<0.001, #BA, *MBA compared to veh in two independent experiments.
TEER of C2bbe cells exposed to 5 mM butyrate derivatives.
Therefore, we decided to study the effect of various butyrate derivatives in barrier function; in fact, sodium butyrate is an established pro-barrier factor. We studied epithelial barrier integrity through measurement of transepithelial electrical resistance (TEER), a typical assay for the quantitation of epithelial barrier strength. IEC c2bbe were exposed to butyrate derivatives (all at 5 mM) and TEERS were measured daily.

[6] = system: PHD (2-OG accumulation) in T84 IECs; test: 2-OG levels in T84 cells as biomarker of PHD inhibition; assay type: cell-based; details: 3 h
Procedure: (B) 2-OG concentrations in T84 cells treated with 10 mM butyrate with or without 1 mM MCPA or 30 μM IOX2 for 3 h
The relationship between butyrate and HIF, were examined whether butyrate influences PHD activity by monitoring 2-OG levels. […] In this, we considered such 2-OG accumulation as a metabolic biomarker of PHD inhibition (FIG. 3A).

[7] = system: HIF-1α / PHDs in murine colon tissue; test: rectal gavage of butyrate or IOX2 in antibiotic SCFA-depleted mice; assay type: in vivo; details: 1 h, 100 mM butyrate, 1.5 mM IOX2

T1 sequence (Q9GZT9 181-402): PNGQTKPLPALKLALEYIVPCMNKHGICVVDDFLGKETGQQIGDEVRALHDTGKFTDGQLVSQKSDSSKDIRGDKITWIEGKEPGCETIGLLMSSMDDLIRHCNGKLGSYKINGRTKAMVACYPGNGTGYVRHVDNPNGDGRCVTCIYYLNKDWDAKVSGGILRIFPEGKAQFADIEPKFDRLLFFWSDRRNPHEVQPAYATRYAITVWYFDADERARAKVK

CCCC(=O)O [Butyrate, Butyric acid]
binding to PHD2181-402 by WaterLOGSY ([1]; listed as Butyric acid): indicating binding
binding to PHD2181-402 by WaterLOGSY ([1]; listed as butyrate): indicative of binding
binding to the 2-OG and PHD2181-402 complex by WaterLOGSY ([1]; 10 mM butyrate, 25 μM PHD2181-402, with 150 μM 2-OG): could not bind
induction of HIF target genes BNIP3 and CAIX ([2]; T84, 5 mM): significant induction
induction of BNIP3 and CAIX in cells lacking HIF1β ([2]; T84 HIF1β shRNA knockdown, 5 mM): complete loss of induction
mode of PHD inhibition [3]: noncompetitive
IC50 ([3]; 1 μM PHD2181-402, 10 μM 2-OG, 10-minute reaction, n=5-12, error: SEM, read-out: true half maximal inhibitory concentration (IC50) for PHD2181-402): 5.3 mM
Ki ([3]; IC50 to Ki conversion equation of Cer et al., read-out: noncompetitive Ki for PHD2181-402): 5.3 mM
HIF stabilization in the presence of MCPA ([4]; 10 mM butyrate with 1 mM MCPA): still stabilized HIF
HIF-1α protein levels ([4]; 10 mM): increased
HIF-1α target genes BNIP3, BNIP3L, GLUT1 mRNA ([4]; 10 mM): induction of HIF-1α target genes
barrier integrity over the course of the experiment [5]: lose the integrity of their barrier
2-OG levels in the presence of MCPA ([6]; 10 mM butyrate with 1 mM MCPA): significantly increased
2-OG levels compared to control ([6]; 10 mM butyrate, 30 μM IOX2): significantly increased
colon tissue 2-OG levels after antibiotics [7]: rescued
mRNA expression of HIF-1α targets Bnip3, Bnip3l, Glu1 after antibiotics [7]: rescued
